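Exposure lasted 48 hours, with cells grown in 96-well plates and compounds tested at five concentrations. GI50 = concentration required for 50% inhibition of growth.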 Calls of active or inactive are those of the source. No stated cut-off is given here; in the data, active = GI50 up to about 1.1 µM and inactive = higher.
Assays:
Experiment in all cases: growth of human tumour cells (NCI), 48 h
SK-OV-3 = test system: SK-OV-3
M14 = test system: M14
DU-145 = test system: DU-145
PC-3 = test system: PC-3
NCI-H226 = test system: NCI-H226
SF-295 = test system: SF-295
SK-MEL-28 = test system: SK-MEL-28
SF-539 = test system: SF-539
LXFL 529 = test system: LXFL 529
HCT-15 = test system: HCT-15
IGROV-1 = test system: IGROV-1
NCI-H23 = test system: NCI-H23
DMS-273 = test system: DMS-273
MDA-MB-435 = test system: MDA-MB-435
SR = test system: SR
HOP-62 = test system: HOP-62
COLO 205 = test system: COLO 205
OVCAR-8 = test system: OVCAR-8
SW-620 = test system: SW-620
SK-MEL-2 = test system: SK-MEL-2
U-251 = test system: U-251
NCI-H460 = test system: NCI-H460
SNB-75 = test system: SNB-75
OVCAR-4 = test system: OVCAR-4
SNB-19 = test system: SNB-19
SF-268 = test system: SF-268
A498 = test system: A498
DLD-1 = test system: DLD-1
NCI/ADR-RES = test system: NCI/ADR-RES
RPMI-8226 = test system: RPMI-8226
SN12C = test system: SN12C
HOP-18 = test system: HOP-18
NCI-H522 = test system: NCI-H522
SNB-78 = test system: SNB-78
HOP-92 = test system: HOP-92
HCT-116 = test system: HCT-116
BT-549 = test system: BT-549
A549 = test system: A549
TK-10 = test system: TK-10
M19-MEL = test system: M19-MEL
MCF7 = test system: MCF7
786-0 = test system: 786-0
HL-60 = test system: HL-60
Hs-578T = test system: Hs-578T
OVCAR-3 = test system: OVCAR-3
KM-20L2 = test system: KM-20L2
MDA-N = test system: MDA-N
UO-31 = test system: UO-31
OVCAR-5 = test system: OVCAR-5
Malme-3M = test system: Malme-3M
K562 = test system: K562
HCC 2998 = test system: HCC 2998
HT-29 = test system: HT-29
MDA-MB-231 = test system: MDA-MB-231
RXF 393 = test system: RXF 393
RXF 631 = test system: RXF 631
CAKI-1 = test system: CAKI-1
LOX IMVI = test system: LOX IMVI
UACC-62 = test system: UACC-62
DMS-114 = test system: DMS-114
UACC-257 = test system: UACC-257
SK-MEL-5 = test system: SK-MEL-5
ACHN = test system: ACHN
EKVX = test system: EKVX
KM12 = test system: KM12
MOLT-4 = test system: MOLT-4
CCRF-CEM = test system: CCRF-CEM
XF498 = test system: XF498

Measured: GI50

CCN(CC)CC(O)CNc1ccc(NCC2CO2)c2c1C(=O)c1ccccc1C2=O (stereo not drawn)
inactive: SK-OV-3 1.86 µM | DU-145 1.63 µM | NCI-H226 1.32 µM | SF-539 1.32 µM | IGROV-1 1.63 µM | HOP-62 1.15 µM | U-251 1.24 µM | SNB-75 1.6 µM | OVCAR-4 1.18 µM | SNB-19 1.68 µM | A498 3.51 µM | DLD-1 1.9 µM | HOP-18 16.6 µM | HOP-92 1.75 µM | TK-10 2.29 µM | Hs-578T 1.14 µM | OVCAR-5 2.3 µM | Malme-3M 1.93 µM | HCC 2998 1.19 µM | UACC-257 1.48 µM | EKVX 1.74 µM
active: M14 0.199 µM | PC-3 0.74 µM | SF-295 1.05 µM | SK-MEL-28 1.11 µM | LXFL 529 0.0486 µM | NCI-H23 0.499 µM | DMS-273 0.242 µM | MDA-MB-435 0.211 µM | SR 0.055 µM | COLO 205 0.906 µM | OVCAR-8 0.0661 µM | SW-620 0.0327 µM | SK-MEL-2 0.226 µM | NCI-H460 0.695 µM | SF-268 0.0619 µM | NCI/ADR-RES 0.0993 µM | RPMI-8226 0.614 µM | SN12C 0.139 µM | NCI-H522 0.647 µM | SNB-78 0.398 µM | HCT-116 0.0466 µM | BT-549 0.194 µM | A549 1.03 µM | M19-MEL 0.125 µM | MCF7 0.0109 µM | 786-0 0.186 µM | HL-60 0.0236 µM | OVCAR-3 0.46 µM | KM-20L2 0.692 µM | MDA-N 0.323 µM | UO-31 0.594 µM | K562 0.0479 µM | HT-29 0.553 µM | MDA-MB-231 0.536 µM | RXF 393 0.397 µM | RXF 631 0.272 µM | CAKI-1 0.619 µM | LOX IMVI < 0.01 µM | UACC-62 0.56 µM | DMS-114 1.04 µM | SK-MEL-5 0.447 µM | ACHN 0.144 µM | KM12 0.294 µM
0.638 µM: HCT-15

Nc1ccccc1C(=O)/C=C/c1c(O)ccc2ccccc12
> 100 µM: HCT-15
inactive: SK-OV-3 > 100 µM | M14 > 100 µM | NCI-H226 > 100 µM | SF-295 > 100 µM | SK-MEL-28 > 100 µM | SF-539 > 100 µM | LXFL 529 > 100 µM | IGROV-1 > 100 µM | NCI-H23 > 100 µM | DMS-273 > 100 µM | MOLT-4 > 100 µM | SR > 100 µM | HOP-62 > 100 µM | COLO 205 > 100 µM | OVCAR-8 > 100 µM | SW-620 > 100 µM | SK-MEL-2 > 100 µM | U-251 > 100 µM | NCI-H460 > 100 µM | SNB-75 > 100 µM | OVCAR-4 > 100 µM | SNB-19 > 100 µM | SF-268 > 100 µM | A498 > 100 µM | DLD-1 > 100 µM | RPMI-8226 > 100 µM | SN12C 32.7 µM | HOP-18 > 100 µM | NCI-H522 > 100 µM | SNB-78 > 100 µM | HOP-92 > 100 µM | HCT-116 > 100 µM | A549 > 100 µM | TK-10 > 100 µM | M19-MEL 19.4 µM | CCRF-CEM > 100 µM | 786-0 > 100 µM | HL-60 > 100 µM | OVCAR-3 > 100 µM | KM-20L2 > 100 µM | UO-31 > 100 µM | OVCAR-5 > 100 µM | Malme-3M > 100 µM | K562 > 100 µM | HCC 2998 > 100 µM | HT-29 > 100 µM | RXF 393 > 100 µM | RXF 631 > 100 µM | CAKI-1 > 100 µM | LOX IMVI 19.2 µM | UACC-62 > 100 µM | DMS-114 > 100 µM | UACC-257 > 100 µM | SK-MEL-5 > 100 µM | ACHN > 100 µM | EKVX > 100 µM | KM12 > 100 µM

COC(=O)CC(C(C(=O)OC)C(=O)OC)N1C(=O)OCC1c1ccccc1 (stereo not drawn)
> 100 µM: HCT-15
inactive: SK-OV-3 > 100 µM | M14 > 100 µM | NCI-H226 > 100 µM | SF-295 > 100 µM | SK-MEL-28 > 100 µM | SF-539 > 100 µM | LXFL 529 > 100 µM | IGROV-1 > 100 µM | NCI-H23 > 100 µM | DMS-273 97.1 µM | MOLT-4 > 100 µM | HOP-62 > 100 µM | COLO 205 > 100 µM | OVCAR-8 > 100 µM | SW-620 43.5 µM | SK-MEL-2 > 100 µM | U-251 > 100 µM | NCI-H460 > 100 µM | SNB-75 > 100 µM | OVCAR-4 > 100 µM | SNB-19 > 100 µM | SF-268 > 100 µM | A498 > 100 µM | DLD-1 > 100 µM | XF498 > 100 µM | RPMI-8226 58.6 µM | SN12C > 100 µM | NCI-H522 > 100 µM | HOP-92 > 100 µM | HCT-116 > 100 µM | A549 > 100 µM | TK-10 > 100 µM | M19-MEL > 100 µM | CCRF-CEM > 100 µM | 786-0 > 100 µM | HL-60 > 100 µM | OVCAR-3 > 100 µM | KM-20L2 > 100 µM | UO-31 > 100 µM | OVCAR-5 > 100 µM | Malme-3M > 100 µM | K562 > 100 µM | HCC 2998 28.5 µM | HT-29 > 100 µM | RXF 393 > 100 µM | RXF 631 > 100 µM | CAKI-1 > 100 µM | LOX IMVI > 100 µM | UACC-62 > 100 µM | UACC-257 > 100 µM | SK-MEL-5 > 100 µM | ACHN > 100 µM | EKVX > 100 µM | KM12 > 100 µM
